Laboratory results published in PubChem BioAssay AID330 (DTP/NCI, 2004).
Several values for one entry are separate records, joined by “and”; a condition that tells them apart may be missing. Equal entries are not always repeated. Inconclusive results and toxic doses are left out. How the source made its calls: active means survival T/C of 150% or more; inactive means T/C below 125% in these data.

Tested on: P388 leukemia ip, CD2F1 mice, survival T/C
Assay: NCI In Vivo Anticancer Drug Screen. Data for tumor model P388 Leukemia (intraperitoneal) in CD2F1 (CDF1) mice
Settings: endpoint: median survival time, higher = longer survival
Procedure, shortened: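 Mice carrying the transplanted tumor received test compound or vehicle. Survival was recorded in each group, and the value is the treated-group measurement divided by that of the vehicle-treated control group.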

[1] = dose: 100.0 mg/kg/injection, schedule: Q04DX003 (ip), vehicle: saline
[2] = dose: 200.0 mg/kg/injection, schedule: Q04DX003 (ip), vehicle: saline
[3] = dose: 60.0 mg/kg/injection, schedule: Q01DX005 (ip), vehicle: saline with Tween-80
[4] = dose: 120.0 mg/kg/injection, schedule: Q01DX005 (ip), vehicle: saline with Tween-80
[5] = dose: 240.0 mg/kg/injection, schedule: Q01DX005 (ip), vehicle: saline with Tween-80
[6] = dose: 50.0 mg/kg/injection, schedule: Q01DX005 (ip), vehicle: saline with Tween-80
[7] = dose: 100.0 mg/kg/injection, schedule: Q01DX005 (ip), vehicle: saline with Tween-80
[8] = dose: 200.0 mg/kg/injection, schedule: Q01DX005 (ip), vehicle: saline with Tween-80
[9] = dose: 50.0 mg/kg/injection, schedule: Q01DX005 (ip), vehicle: saline
[10] = dose: 12.5 mg/kg/injection, schedule: Q01DX005 (ip), vehicle: saline
[11] = dose: 25.0 mg/kg/injection, schedule: Q01DX005 (ip), vehicle: saline
[12] = dose: 100.0 mg/kg/injection, schedule: Q01DX001 (ip), vehicle: Klucel (hydroxypropylcellulose) (HPC)
[13] = dose: 200.0 mg/kg/injection, schedule: Q01DX001 (ip), vehicle: Klucel (hydroxypropylcellulose) (HPC)
[14] = dose: 50.0 mg/kg/injection, schedule: Q01DX009 (ip), vehicle: saline
[15] = dose: 100.0 mg/kg/injection, schedule: Q01DX009 (ip), vehicle: saline
[16] = dose: 200.0 mg/kg/injection, schedule: Q01DX009 (ip), vehicle: saline
[17] = dose: 50.0 mg/kg/injection, schedule: Q01DX009 (ip), vehicle: Klucel (hydroxypropylcellulose) (HPC)
[18] = dose: 100.0 mg/kg/injection, schedule: Q01DX001 (ip), vehicle: saline
[19] = dose: 200.0 mg/kg/injection, schedule: Q01DX001 (ip), vehicle: saline
[20] = dose: 400.0 mg/kg/injection, schedule: Q04DX003 (ip), vehicle: saline

Measured: T/C

NC(=O)C(CC(=O)O)NC(=O)OCc1ccccc1 (centres undefined)
inactive: dose: 4.0 mg/kg/injection, schedule: Q01DX009 (ip), vehicle: other 100 % of control | dose: 8.0 mg/kg/injection, schedule: Q01DX009 (ip), vehicle: other 114 % of control | dose: 16.0 mg/kg/injection, schedule: Q01DX009 (ip), vehicle: other 101 % of control | dose: 32.0 mg/kg/injection, schedule: Q01DX009 (ip), vehicle: other 98 % of control | dose: 50.0 mg/kg/injection, schedule: Q01DX009 (ip), vehicle: other 96 % of control | dose: 64.0 mg/kg/injection, schedule: Q01DX009 (ip), vehicle: other 91 % of control | dose: 100.0 mg/kg/injection, schedule: Q01DX009 (ip), vehicle: other 90 % of control | dose: 150.0 mg/kg/injection, schedule: Q01DX009 (ip), vehicle: other 109 % of control | dose: 200.0 mg/kg/injection, schedule: Q01DX009 (ip), vehicle: other 105 % of control | dose: 400.0 mg/kg/injection, schedule: Q01DX009 (ip), vehicle: other 113 % of control

COc1ccc(CC(C#N)c2ccccc2)cc1 (centres undefined)
inactive: dose: 25.0 mg/kg/injection, schedule: Q04DX003 (ip), vehicle: saline 99 % of control | dose: 50.0 mg/kg/injection, schedule: Q04DX003 (ip), vehicle: saline 104 % of control | [1] 103 % of control | [2] 99 % of control

COC1OC(C(C)Br)C2OC(C)(C)OC12 (centres undefined)
inactive: [3] 105 % of control | [4] 102 % of control | [5] 107 % of control

COC(=O)c1ccc(O)cc1
inactive: dose: 12.5 mg/kg/injection, schedule: Q01DX005 (ip), vehicle: saline with Tween-80 98 % of control | dose: 25.0 mg/kg/injection, schedule: Q01DX005 (ip), vehicle: saline with Tween-80 99 % of control | [6] 100 % of control | [7] 100 % of control | [8] 105 % of control | dose: 400.0 mg/kg/injection, schedule: Q01DX005 (ip), vehicle: saline with Tween-80 100 % of control

CC(OP(=O)(O)O)C(N)C(=O)O (centres undefined)
inactive: [9] 97 % of control | dose: 100.0 mg/kg/injection, schedule: Q01DX005 (ip), vehicle: saline 93 % of control | dose: 200.0 mg/kg/injection, schedule: Q01DX005 (ip), vehicle: saline 98 % of control

CCCCOC(=O)c1ccccn1
inactive: dose: 50.0 mg/kg/injection, schedule: Q04DX003 (ip), vehicle: saline with Tween-80 95 % of control | dose: 100.0 mg/kg/injection, schedule: Q04DX003 (ip), vehicle: saline with Tween-80 100 % of control | dose: 200.0 mg/kg/injection, schedule: Q04DX003 (ip), vehicle: saline with Tween-80 95 % of control

CC(C)CC(C(=O)O)N(CC(=O)O)CC(=O)O (centres undefined)
inactive: [10] 97 % of control | [11] 87 % of control | [9] 98 % of control

Cc1ccc(S(=O)(=O)N/N=C\c2c(-c3ccc(Cl)cc3)nc3sccn23)cc1
inactive: [12] 93 % of control | [13] 94 % of control

CN=C(NCCSCc1ccc2ccccc2n1)NCc1ccccc1
inactive: [10] 98 % of control | [11] 109 % of control | [9] 101 % of control

C=C(C)C(=NC(C)(C)C)Nc1cccc(Cl)c1
inactive: [14] 100 % of control | [15] 104 % of control | [16] 100 % of control

C(=C\c1ccc(-c2nc3ccccc3o2)cc1)/c1ccc(-c2nc3ccccc3o2)cc1
inactive: [17] 100 % of control | dose: 100.0 mg/kg/injection, schedule: Q01DX009 (ip), vehicle: Klucel (hydroxypropylcellulose) (HPC) 101 % of control | dose: 200.0 mg/kg/injection, schedule: Q01DX009 (ip), vehicle: Klucel (hydroxypropylcellulose) (HPC) 102 % of control

CCN(CC)CCNc1ccc(N=Nc2cnc3ccccc3c2)c2ccccc12
inactive: dose: 12.5 mg/kg/injection, schedule: Q01DX009 (ip), vehicle: Klucel (hydroxypropylcellulose) (HPC) 110 % of control | dose: 12.5 mg/kg/injection, schedule: Q04DX003 (ip), vehicle: Klucel (hydroxypropylcellulose) (HPC) 109 % of control | dose: 25.0 mg/kg/injection, schedule: Q01DX009 (ip), vehicle: Klucel (hydroxypropylcellulose) (HPC) 115 % of control | dose: 25.0 mg/kg/injection, schedule: Q04DX003 (ip), vehicle: Klucel (hydroxypropylcellulose) (HPC) 100 % of control | [17] 115 % of control | dose: 50.0 mg/kg/injection, schedule: Q04DX003 (ip), vehicle: Klucel (hydroxypropylcellulose) (HPC) 100 % of control

CC(C)(C)C1(C#N)C(=O)N(c2ccc(N3C(=O)C(C#N)(C(C)(C)C)C34c3ccccc3-c3ccccc34)cc2)C12c1ccccc1-c1ccccc12 (centres undefined)
inactive: dose: 100.0 mg/kg/injection, schedule: Q04DX003 (ip), vehicle: Klucel (hydroxypropylcellulose) (HPC) 93 % of control | dose: 200.0 mg/kg/injection, schedule: Q04DX003 (ip), vehicle: Klucel (hydroxypropylcellulose) (HPC) 93 % of control | dose: 400.0 mg/kg/injection, schedule: Q04DX003 (ip), vehicle: Klucel (hydroxypropylcellulose) (HPC) 91 % of control

O=C1Cc2cccc3cccc1c23
inactive: dose: 25.0 mg/kg/injection, schedule: Q01DX009 (ip), vehicle: saline with Tween-80 90 % of control | dose: 50.0 mg/kg/injection, schedule: Q01DX009 (ip), vehicle: saline with Tween-80 104 % of control | dose: 100.0 mg/kg/injection, schedule: Q01DX009 (ip), vehicle: saline with Tween-80 96 % of control | dose: 200.0 mg/kg/injection, schedule: Q01DX009 (ip), vehicle: saline with Tween-80 111 % of control

CCOC(=O)c1nnn(-c2cncc(-n3nnc(C(=O)OCC)c3C(=O)OCC)n2)c1C(=O)OCC
inactive: dose: 60.0 mg/kg/injection, schedule: Q01DX005 (ip), vehicle: Klucel (hydroxypropylcellulose) (HPC) 98 % of control | dose: 120.0 mg/kg/injection, schedule: Q01DX005 (ip), vehicle: Klucel (hydroxypropylcellulose) (HPC) 102 % of control | dose: 240.0 mg/kg/injection, schedule: Q01DX005 (ip), vehicle: Klucel (hydroxypropylcellulose) (HPC) 103 % of control

CC(=O)OCC1CN2CC1(c1ccccc1)C(=O)NC2=O (centres undefined)
inactive: [18] 102 % of control | [19] 102 % of control | dose: 400.0 mg/kg/injection, schedule: Q01DX001 (ip), vehicle: saline 100 % of control

CCOC(=O)c1cnc(Sc2ccc([N+](=O)[O-])cc2[N+](=O)[O-])nc1N
inactive: [1] 93 % of control | [2] 100 % of control | [20] 98 % of control

O=C1c2ccccc2-c2c1c1ccccc1c(=O)n2-c1ccccc1
inactive: [6] 102 % of control | [7] 107 % of control | [8] 100 % of control

COc1ccc(Cn2nnc(C(N)=O)c2Cl)cc1
inactive: [12] 99 % of control | [13] 99 % of control | dose: 400.0 mg/kg/injection, schedule: Q01DX001 (ip), vehicle: Klucel (hydroxypropylcellulose) (HPC) 89 % of control

NC(=O)NO
active: [16] 160 % of control | dose: 300.0 mg/kg/injection, schedule: Q01DX009 (ip), vehicle: saline 185 % of control | dose: 450.0 mg/kg/injection, schedule: Q01DX009 (ip), vehicle: saline 160 % of control and 184 % of control | dose: 500.0 mg/kg/injection, schedule: Q01DX009 (ip), vehicle: saline 200 % of control
inactive: dose: 112.0 mg/kg/injection, schedule: Q03HX024 (ip), vehicle: saline 83 % of control | dose: 750.0 mg/kg/injection, schedule: Q01DX009 (ip), vehicle: saline 100 % of control and 98 % of control | dose: 2000.0 mg/kg/injection, schedule: Q01DX001 (ip), vehicle: saline 98 % of control

Cc1cnc(I)[nH]1
inactive: [18] 102 % of control | [1] 107 % of control | [19] 105 % of control | [2] 112 % of control | [20] 92 % of control

CSC(=N\N=C\c1c(F)cccc1Cl)/N=C/N(C)C
inactive: [3] 95 % of control | [4] 101 % of control | [5] 103 % of control

[CH3][Ge]([CH3])[CH3].[CH3][Ge]([CH3])[CH3]
inactive: [14] 95 % of control | [15] 91 % of control | [16] 97 % of control
